The structures appear in SMILES notation.

The assay concerns TGF/SMAD Signaling Pathway SBE Reporter-HEK293 Cell Line. In words: Luciferase screen, TGF/SMAD Signaling Pathway SBE Reporter-HEK293 cells stimulated with TGFβ. Type of assay: cell-based. As to conditions: compound 4 hours before TGFβ 10 ng/mL, incubated overnight (18 hours), luminescence. As for the experimental part: For the data in Table 1, the Bight-Glo™ Luciferase Assay System from Promega was used with TGF/SMAD Signaling Pathway SBE Reporter-HEK293 Cell Line from BPSbioscience. On day 1 SBE reporter-HEK293 cells were seeded at a density of 25,000 cells per well into a white clear-bottom 96-well microplate in 100 μL of growth medium without geneticin. The plate was incubated at 37° C. in a CO2 incubator for 24 hrs. The wells were renewed with 60 μL assay medium and treated with test compounds by adding 5 μL of compounds in medium. The concentration of test compound in medium is adjusted so that 5 μL will provide the desired molarity of the solution. After 4 hours, TGFβ was added to 10 ng/mL. The plate was incubated at 37° C. in a CO2 incubator overnight (18 hours). One hour prior to assay all medium was replaced. The luciferase assay was run using ONE-Step™ Luciferase Assay System by adding 100 μL of ONE-Step™ Luciferase reagent per well, rocking at room temperature for ˜15 to 30 minutes and measuring luminescence using a luminometer. The signals were normalized to percentage inhibition, with non-TGF treated cells as 100% inhibition, and the data were processed by Graphpad Prism.
The symbol “***” indicates IC50<100 nM, “**” indicates IC50≥100 nM but <10 μM, “*” indicates IC50≥10 μM.
In general, IC50 refers to the concentration needed to halve the response being measured. A high value points to a need for much substance. As to `O[C@H]1Cc2cc(-c3nc(-c4ccc(Cl)cc4)no3)cnc2OC12CCC2` [Compound 1], the IC50 fell in the range of 0.1 to 10 µM.

With `O[C@@H]1Cc2cc(-c3nc(-c4ccc(Cl)cc4)no3)cnc2OC12CCC2` [Compound 2], the IC50 was less than 0.1 µM.

`O[C@H]1Cc2cc(-c3nc(-c4ccc(Cl)cc4)no3)cnc2OC12CCCC2` [Compound 3] had a half-inhibitory concentration (IC50) not below 10 µM.

The compound `O[C@H]1Cc2cc(-c3nc(-c4ccc(Cl)c(F)c4)no3)cnc2OC12CCC2` [Compound 4] showed an IC50 not below 10 µM.

In turn, `Cc1ccc(-c2noc(-c3cnc4c(c3)C[C@H](O)C3(CCC3)O4)n2)cc1` [Compound 5] registered an IC50 not below 10 µM.

`Cn1ccc(-c2noc(-c3cnc4c(c3)C[C@H](O)C3(CCC3)O4)n2)n1` [Compound 6] registered a half-inhibitory concentration (IC50) not below 10 µM.

On to `O[C@H]1Cc2cc(-c3nnc(-c4ccc(Cl)cc4)o3)cnc2OC12CCC2` [Compound 7], for which the IC50 was in the range of 0.1 to 10 µM.

As to `O[C@H]1Cc2cc(-c3noc(-c4ccc(Cl)cc4)n3)cnc2OC12CCC2` [Compound 8], the IC50 is not below 10 µM.

Take `[2H]C([2H])([2H])C1(C([2H])([2H])[2H])Oc2ncc(-c3nc(-c4ccc(Cl)cc4)no3)cc2C[C@@H]1O` [Compound 9]: the 50% inhibitory concentration (IC50) is less than 0.1 µM.

The record behind these values is patent US20240051965A1, “OXYGEN-CONTAINING HETEROCYCLIC COMPOUND AND USE THEREOF” (Icahn School of Medicine at Mount Sinai, priority 2022, published 2024).
